The values below come from publication PMC2785468, “Androgen Receptor Mutations Associated with Androgen Insensitivity Syndrome: A High Content Analysis Approach Leading to Personalized Medicine” (PLoS ONE, 2009).

The assay addresses T1, wild type AR (Homo sapiens, UniProt P10275).
T1 construct: expressed in transfected cells
T1 sequence (P10275 1-920): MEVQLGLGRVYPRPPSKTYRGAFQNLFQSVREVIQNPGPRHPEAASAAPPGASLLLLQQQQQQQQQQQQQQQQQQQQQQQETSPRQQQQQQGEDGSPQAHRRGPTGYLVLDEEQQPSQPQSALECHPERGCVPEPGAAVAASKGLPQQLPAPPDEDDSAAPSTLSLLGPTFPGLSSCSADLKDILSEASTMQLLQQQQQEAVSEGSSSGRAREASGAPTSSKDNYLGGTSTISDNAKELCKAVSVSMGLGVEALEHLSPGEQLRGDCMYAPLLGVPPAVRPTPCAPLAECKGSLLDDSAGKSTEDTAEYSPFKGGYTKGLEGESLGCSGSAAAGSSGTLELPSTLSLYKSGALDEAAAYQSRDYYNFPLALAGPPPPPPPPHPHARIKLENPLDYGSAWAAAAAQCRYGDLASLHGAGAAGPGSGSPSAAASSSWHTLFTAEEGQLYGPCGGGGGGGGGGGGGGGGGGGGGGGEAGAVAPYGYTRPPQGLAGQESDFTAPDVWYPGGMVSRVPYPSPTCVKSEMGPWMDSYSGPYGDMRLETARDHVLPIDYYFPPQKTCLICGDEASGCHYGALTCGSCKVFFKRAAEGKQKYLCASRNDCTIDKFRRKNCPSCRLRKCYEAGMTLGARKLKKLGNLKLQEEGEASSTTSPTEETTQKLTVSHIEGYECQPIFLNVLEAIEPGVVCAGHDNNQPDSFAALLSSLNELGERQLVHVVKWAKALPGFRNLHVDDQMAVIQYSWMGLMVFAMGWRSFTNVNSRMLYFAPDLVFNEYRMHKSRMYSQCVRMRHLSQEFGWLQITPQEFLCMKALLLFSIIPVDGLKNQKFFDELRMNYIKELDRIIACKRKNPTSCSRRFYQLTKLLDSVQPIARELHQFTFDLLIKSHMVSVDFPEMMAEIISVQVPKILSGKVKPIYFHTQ
The format is cell-based. Here is the method:
To determine the global effect of the various AIS mutations on AR signaling, each was analyzed using HCA. This technology allows simultaneous quantification of AR protein expression, nuclear translocation, subnuclear patterning, and transcriptional activity. The analysis was done in HeLa cell lines stably transfected with wild type or mutant ARs fused with green fluorescent protein, or using AR immunofluorescence in primary cultures of genital skin fibroblasts generated from foreskin biopsies of historical AIS patients, or of normal neonates undergoing circumcision at birth. To prevent the effects of receptor over-expression, stable HeLa cells were carefully selected to express AR levels similar to LNCaP as previously described. Prior to ligand treatment, HeLa cells were transfected with the pARR2PB-dsRED2skl reporter plasmid, consisting of the AR responsive promoter ARR2PB [31] driving expression of the red fluorescent protein reporter dsRED2skl engineered to target peroxisomes.
For studies utilizing HeLa GFP-AR cell lines, twenty-four hours before transfection with pARR2PB-dsRED2skl, cells were plated onto 100 mm plastic dishes in medium supplemented with 5% charcoal-stripped and dialyzed-FBS. Transient introduction of the pARR-2PB-dsRED2skl reporter construct was performed using 6.0 µg reporter plasmid and 6.0 µg carrier DNA (BlueScript, Stratagene, San Diego, CA) using Transfectin (Biorad) following standard protocols. After 8-hour incubation, DNA/lipid complexes were removed. Cells were then trypsinized and replated at 10,000 cells per well in Nunc poly-D-lysine treated 96-well optical glass bottom plates and incubated an additional 12 hours to allow for cell adhesion. […] Compound dilutions and final addition to multi-well plates were performed using a Beckman Biomek NX robotic platform to ensure repeatability from experiment to experiment. After incubation was complete, using the Biomek NX robot, plates were washed with PBS and fixed for 20 min at RT in 4% formaldehyde prepared in CSK buffer (80 mM potassium PIPES, pH 6.8, 5 mM EGTA, 2 mM MgCl2). After fixation, cells were briefly permeabilized (5 min) with 0.5% Triton-X and prepared for imaging by washing in PBS, aspirating the washed solution, and adding a 1 ng/ml DAPI solution to stain DNA and a generic protein stain (CellMask, Invitrogen) to facilitate cell and nuclear image segmentation. Cells were imaged in PBS.
Cells were imaged using the Cell Lab IC-100 Image Cytometer (IC-100; Beckman Coulter) platform that consists of 1) Nikon Eclipse TE2000-U Inverted Microscope (Nikon; Melville, NY); 2) Chroma 82000 triple band filter set (Chroma; Brattleboro, VT); 3) an imaging camera: Hamamatsu ORCA-ER Digital CCD camera (Hamamatsu; Bridgewater, NJ); and 4) a focusing camera: Photonics COHU Progressive scan camera (Photonics; Oxford, MA). […] In general, 49 to 64 images were captured per well for image analysis.
Initially, the background signal was removed from all images using plate- and channel-specific correction images, generated by the sum projection of >600 randomly selected images for each channel from the image set. This allows for a pixel-by-pixel background subtraction that compensates any consistent uneven background artifacts in the image set. Furthermore, users are able to customize the degree of background subtraction by applying a multiplier to each correction image, useful for identification of objects such as nuclei or cell borders. […]

With `C[C@@H]1CC2=CC(=O)CC[C@@H]2[C@H]2CC[C@@]3(C)[C@@H](CC[C@]3(C)O)[C@@H]21` [Mb, Mibolerone], the “Percent Signal in Nucleus, Max” value (HeLa Wild Type, % signal present in the nucleus, Mean±S.E.M.) was 80.5±1.9%. Also, the “Hyperspeckling, Max” value (HeLa Wild Type, absolute numerical measurement) is listed as 1101±61. For the same compound, the “Transcriptional Activity, Max” value (HeLa Wild Type, pARR2PB-dsRED2skl reporter, absolute numerical measurement) was determined as 113±1.4. Also, the “increase in the percent of the GFP signal in the nucleus” value (HeLa wild type GFP-AR, vs untreated) is given as “approximately 30%”. The “factor between EC50 for nuclear translocation and EC50 for hyperspeckling and transcriptional activity” value (HeLa-AR cells, 1440 min) was “approximately 30 fold”.
